Residues, ends and D or L forms follow the SMILES beside them. *: point of attachment. Cbz = O=C(OCc1ccccc1)*
Columns and labels:
[1] = system: STUD degradation of GFP in Jurkat T cells; assay: Inhibitor assay: rescue of GFP fluorescence in Jurkat T cells expressing STUD and GFP target; type: cell-based; settings: 5 hours
Protocol: Using the 2 plasmid system as described above, we lentivirally transduce Jurkat T cells. 72 hours after removal of lentivirus, we treat these Jurkat T cells and an untransduced control cell line with either 5 μM of the proteasomal inhibitor MG-132, 1 μM of the cullin ring ligase inhibitor MLN4924, 100 nM of the lysosomal inhibitor Bafilomycin Al, or DMSO vehicle control and incubate at 37 C for 5 hours. Using flow cytometry to measure GFP fluorescence following treatment, we observe that GFP fluorescence can indeed be rescued with MG-132 and MLN4924 when cells express both a functional STUD and a GFP target relative to DMSO vehicle control.
(§1) Inhibitor Assays: 100,000 cells were plated in a 96 well round bottom plate with either 5 μM MG-132 (Sigma-Aldrich #M7449-200UL), 1 μM MLN4924(Active Biochem #A-1139), 100 nM Bafilomycin A1(Enzo Life Sciences #BML-CM110-0100), or DMSO vehicle control and incubated at 37 C for 5 hours. After incubation, cells were pelleted by centrifugation at 400×g for 4 minutes. Supernatant was then removed and cells were washed once with 200 μL PBS. Cells were pelleted again (400×g for 4 minutes) and resuspended in flow buffer (PBS+2% FBS) for assay by flow cytometry.

NALM6 target cells = assay: MLN dose response: ON switch CAR lysis of NALM6 target cells; type: cell-based, human; settings: MLN4924 1 μM to 0.015625 μM, 72 hours, CD8+ T cells with antiCD19BBz CAR-SynZip and memSTUD
Protocol: CD8+primary human T cells were engineered with an antiCD19BBz CAR fused to a SynZip and a memSTUD that binds the SynZip using the same plasmids outlined in FIG. 14A by lentiviral transduction. As a control, we also lentivirally transduce CD8+primary human T cells with an antiCD19BBz and a SynZip memSTUD which cannot bind the CAR. These engineered cells and an untransduced control were cocultured with NALM6 target cells for 72 hours at 37 C in the presence of MLN4924 ranging from 1 μM to 0.015625 μM and a DMSO vehicle control. After coculture, target cell lysis was assayed by flow cytometry. Specific target cell lysis of each cell line relative to NALM6 cells cultured alone in the same conditions was then calculated.
100 μL containing media containing a 2×concentration of MLN4924 was added to each well of seeded cells. Cells with MLN4924 were incubated at 37 C for 72 hours. DMSO vehicle at the same concentration as the max MLN4924 concentration was added to cells as a control.

CD19BBz CAR = assay: MLN4924 rescue of STUD knockdown of CD19BBz CAR expression in CD8+ primary T cells; type: cell-based, human; settings: 1 μM MLN4924, 5 hours, 37 C
Protocol: Engineered CD8+T cells expressing were cocultured with NALM6 target cells and measured activation of the CAR by quantifying target cell lysis and expression of the T cell activation marker CD25.
as §1

[2] = system: CAR construct with SynZIP17 fused to its C-terminus; assay: Degradation of CAR-SZ17 fusion in Jurkat cells; type: cell-based; settings: degron directly fused to the CAR
Protocol: Next, the soluble STUD was used to target a membrane protein for degradation. The ability of the STUD to degrade a CAR in Jurkat cells was tested by generating a CAR construct with SynZIP17 fused to its C-terminus. However, while these STUDs worked to some extent, none of them were able to completely knockdown CAR expression (see FIG. 8).
Membrane targeting STUD: Membrane targeting cells were introduced by lentiviral transduction of two plasmids. […] Cells were then analyzed by flow cytometry. […] CAR and SynNotch expression was measured by antibody staining for a peptide tag fused to the extracellular domain of the CAR/SynNotch.

GFP-SZ17 [GFP: P42212] = assay: cell-based or functional assay

CC(C)C[C@@H](C=O)NC(=O)[C@H](CC(C)C)NC(=O)[C@H](CC(C)C)NC(=O)OCc1ccccc1 [MG-132] (Cbz-Leu-Leu-Leu-aldehyde)
GFP fluorescence relative to DMSO vehicle control ([1]; 5 μM MG-132, 37 C, cells with functional STUD and GFP target): rescued

NS(=O)(=O)OC[C@@H]1C[C@@H](n2ccc3c(N[C@H]4CCc5ccccc54)ncnc32)C[C@@H]1O [MLN4924]
GFP fluorescence relative to DMSO vehicle control ([1]; 1 μM MLN4924, 37 C, cells with functional STUD and GFP target): rescued | specific target cell lysis (NALM6 target cells): dose dependent | CAR expression after cullin inhibitor (CD19BBz CAR): rescue

RRRG [Bonger degron]
reduction of CAR expression [2]: over 90%

SynZIP18(K->R)-5xGS-RRRG (designed binder)
fold change of median normalized GFP fluorescence, flow cytometry, Jurkat T cells (STUD-induced degradation) (GFP-SZ17 [GFP: P42212]): 42 fold

bafilomycin
GFP fluorescence relative to DMSO vehicle control ([1]; 100 nM Bafilomycin, 37 C): No changes

— US20230302133A1, “TARGETED PROTEIN DEGRADATION IN THERAPEUTIC CELLS” (The Regents of the University of California, priority 2020, published 2023)
